From ChEMBL document CHEMBL2321798, “Polyamino geranic derivatives as new chemosensitizers to combat antibiotic resistant gram-negative bacteria” (Bioorg Med Chem, 2013)
In brackets after ≈: the same amount, converted by molar mass. Activity calls are given as the source filed them. The rule behind the calls is not given here. Residues, ends and D or L forms follow the SMILES beside them. *: point of attachment. βNA = c1ccc2cc(N*)ccc2c1

How the values were obtained:
Salmonella typhimurium [1] = assay: Antibacterial activity against Salmonella enterica Typhimurium BN10055 harboring deltaacrB after 18 hrs by broth dilution method; assay type: functional, Salmonella enterica subsp. enterica serovar Typhimurium; conditions: BN10055, 18 h
Salmonella typhimurium [2] = assay: Antibacterial activity against Salmonella enterica Typhimurium BN10055 after 18 hrs by broth dilution method; assay type: functional, Salmonella enterica subsp. enterica serovar Typhimurium; conditions: BN10055, 18 h
Klebsiella aerogenes [3] = assay: Antibacterial activity against Enterobacter aerogenes Ea289 after 18 hrs by broth dilution method; assay type: functional; conditions: Ea289, 18 h
Klebsiella aerogenes [4] = assay: Antibacterial activity against Enterobacter aerogenes Ea294 harboring Ea289deltaacrB after 18 hrs by broth dilution method; assay type: functional; conditions: Ea294, 18 h
[5] = target: T1, AcrB protein (Klebsiella aerogenes) (UniProt Q9AEG1); assay: Inhibition of AcrB in Enterobacter aerogenes Ea289 assessed as glucose-induced 1,2' dinaphthylamine efflux after 18 hrs
T1 sequence (whole entry): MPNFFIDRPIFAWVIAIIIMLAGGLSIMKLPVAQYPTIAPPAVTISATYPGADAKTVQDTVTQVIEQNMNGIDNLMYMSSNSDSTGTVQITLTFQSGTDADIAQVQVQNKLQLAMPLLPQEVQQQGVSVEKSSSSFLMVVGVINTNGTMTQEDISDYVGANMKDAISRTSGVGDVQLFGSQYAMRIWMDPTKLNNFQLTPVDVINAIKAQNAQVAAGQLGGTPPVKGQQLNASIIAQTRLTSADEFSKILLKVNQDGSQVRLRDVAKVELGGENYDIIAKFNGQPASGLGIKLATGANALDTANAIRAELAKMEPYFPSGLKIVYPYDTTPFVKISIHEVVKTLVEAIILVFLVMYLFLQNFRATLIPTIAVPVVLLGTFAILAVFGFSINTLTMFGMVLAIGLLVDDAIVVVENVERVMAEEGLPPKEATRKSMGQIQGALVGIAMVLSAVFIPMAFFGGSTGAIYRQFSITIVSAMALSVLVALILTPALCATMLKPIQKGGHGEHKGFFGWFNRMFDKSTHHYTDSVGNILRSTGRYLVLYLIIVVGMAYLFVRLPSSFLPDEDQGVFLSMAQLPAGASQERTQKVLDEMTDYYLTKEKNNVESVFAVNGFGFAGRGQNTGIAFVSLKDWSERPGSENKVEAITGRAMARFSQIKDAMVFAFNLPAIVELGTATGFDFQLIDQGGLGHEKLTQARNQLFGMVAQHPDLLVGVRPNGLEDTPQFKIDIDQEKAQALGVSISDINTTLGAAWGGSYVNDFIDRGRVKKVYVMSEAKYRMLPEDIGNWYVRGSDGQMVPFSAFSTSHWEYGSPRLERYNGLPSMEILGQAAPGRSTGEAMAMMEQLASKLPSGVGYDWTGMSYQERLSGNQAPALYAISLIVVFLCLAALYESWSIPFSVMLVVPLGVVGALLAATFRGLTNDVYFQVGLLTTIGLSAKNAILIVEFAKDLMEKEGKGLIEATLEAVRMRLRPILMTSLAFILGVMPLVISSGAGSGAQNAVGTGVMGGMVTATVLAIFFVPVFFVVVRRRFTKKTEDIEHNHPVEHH

Salmonella typhimurium [6] = assay: Reduction of multidrug-resistant in Salmonella enterica Typhimurium BN10055 assessed as ratio of nalidixic acid MIC to nalidixic acid MIC in presence of compound at 38 uM by micro-broth dilution method; assay type: functional, Salmonella enterica subsp. enterica serovar Typhimurium
Salmonella typhimurium [7] = assay: Reduction of multidrug-resistant in Salmonella enterica Typhimurium BN10055 assessed as ratio of chloramphenicol MIC to chloramphenicol MIC in presence of compound at 38 uM by micro-broth dilution method; assay type: functional, Salmonella enterica subsp. enterica serovar Typhimurium
Klebsiella aerogenes [8] = assay: Reduction of multidrug-resistant in Enterobacter aerogenes Ea289 assessed as ratio of nalidixic acid MIC to nalidixic acid MIC in presence of compound at 38 uM by micro-broth dilution method; assay type: functional
Klebsiella aerogenes [9] = assay: Reduction of multidrug-resistant in Enterobacter aerogenes Ea289 assessed as ratio of chloramphenicol MIC to chloramphenicol MIC in presence of compound at 38 uM by micro-broth dilution method; assay type: functional
Salmonella typhimurium [10] = assay: Reduction of multidrug-resistant in Salmonella enterica Typhimurium BN10055 harboring deltaacrB assessed as ratio of nalidixic acid MIC to nalidixic acid MIC in presence of compound by micro-broth dilution method; assay type: functional, organism-based; conditions: Salmonella enterica subsp. enterica serovar Typhimurium
Salmonella typhimurium [11] = assay: Reduction of multidrug-resistant in Salmonella enterica Typhimurium BN10055 harboring deltaacrB assessed as ratio of chloramphenicol MIC to chloramphenicol MIC in presence of compound by micro-broth dilution method; assay type: functional, organism-based; conditions: Salmonella enterica subsp. enterica serovar Typhimurium
Klebsiella aerogenes [12] = assay: Reduction of multidrug-resistant in Enterobacter aerogenes Ea294 harboring Ea289deltaacrB assessed as ratio of nalidixic acid MIC to nalidixic acid MIC in presence of compound by micro-broth dilution method; assay type: functional, organism-based
Klebsiella aerogenes [13] = assay: Reduction of multidrug-resistant in Enterobacter aerogenes Ea294 harboring Ea289deltaacrB assessed as ratio of chloramphenicol MIC to chloramphenicol MIC in presence of compound by micro-broth dilution method; assay type: functional, organism-based
Salmonella typhimurium [14] = assay: Reduction of multidrug-resistant in Salmonella enterica Typhimurium BN10055 assessed as ratio of nalidixic acid MIC to nalidixic acid MIC in presence of compound at 75 uM by micro-broth dilution method; assay type: functional, Salmonella enterica subsp. enterica serovar Typhimurium
Salmonella typhimurium [15] = assay: Reduction of multidrug-resistant in Salmonella enterica Typhimurium BN10055 assessed as ratio of chloramphenicol MIC to chloramphenicol MIC in presence of compound at 75 uM by micro-broth dilution method; assay type: functional, Salmonella enterica subsp. enterica serovar Typhimurium
Klebsiella aerogenes [16] = assay: Reduction of multidrug-resistant in Enterobacter aerogenes Ea289 assessed as ratio of nalidixic acid MIC to nalidixic acid MIC in presence of compound at 75 uM by micro-broth dilution method; assay type: functional
Klebsiella aerogenes [17] = assay: Reduction of multidrug-resistant in Enterobacter aerogenes Ea289 assessed as ratio of chloramphenicol MIC to chloramphenicol MIC in presence of compound at 75 uM by micro-broth dilution method; assay type: functional
CHO = assay: Cytotoxicity against CHO cells; assay type: cell-based; conditions: Cricetulus griseus

Structure (SMILES)	MIC (Salmonella typhimurium [1])	MIC (Salmonella typhimurium [2])	MIC (Klebsiella aerogenes [3])	MIC (Klebsiella aerogenes [4])	also measured
C[C@H]1c2cccc(O)c2C(=O)C2=C(O)[C@]3(O)C(=O)C(C(N)=O)=C(O)[C@@H](N(C)C)[C@@H]3[C@@H](O)[C@@H]21 [DOXYCYCLINE]	4.5 µM (≈ 2 µg/mL)	144 µM (≈ 64 µg/mL)	72 µM (≈ 32 µg/mL)	2.25 µM (≈ 1 µg/mL)	
CC(C)=CCC/C(C)=C/C(=O)NCCCNCCCCNCCCN					inhibition [5]: Dose-dependent effect
N=C(N)NCCC[C@H](NC(=O)[C@@H](N)Cc1ccccc1)C(=O)Nc1ccc2ccccc2c1 [PABETAN] (H-Phe-Arg-βNA)	150 µM (≈ 67 µg/mL)	1220 µM (≈ 543 µg/mL)	2430 µM (≈ 1090 µg/mL)	150 µM (≈ 67 µg/mL)	Ratio (Salmonella typhimurium [6]): 64; Ratio (Salmonella typhimurium [7]): 8; Ratio (Klebsiella aerogenes [8]): 8; Ratio (Klebsiella aerogenes [9]): 16
CCn1cc(C(=O)O)c(=O)c2ccc(C)nc21 [NALIDIXIC ACID]	275 µM (≈ 63.9 µg/mL)	17600 µM (≈ 4090 µg/mL)	17600 µM (≈ 4090 µg/mL)	4400 µM (≈ 1020 µg/mL)	
O=C(N[C@H](CO)[C@H](O)c1ccc([N+](=O)[O-])cc1)C(Cl)Cl [CHLORAMPHENICOL]	200 µM (≈ 64.6 µg/mL)	3200 µM (≈ 1030 µg/mL)	3200 µM (≈ 1030 µg/mL)	200 µM (≈ 64.6 µg/mL)	
CC(C)=CCC/C(C)=C/C(=O)NCCCN1CCOCC1		> 250 µM	> 250 µM	> 250 µM	Activity (Salmonella typhimurium [10]): inactive; Activity (Salmonella typhimurium [11]): inactive; Activity (Klebsiella aerogenes [12]): inactive; Activity (Klebsiella aerogenes [13]): inactive; Ratio (Salmonella typhimurium [14]): 1; Ratio (Salmonella typhimurium [15]): 1; Ratio (Klebsiella aerogenes [16]): 1; Ratio (Klebsiella aerogenes [17]): 1; IC50 (CHO): > 150 µM
CC[C@H]1OC(=O)[C@H](C)[C@@H](O[C@H]2C[C@@](C)(OC)[C@@H](O)[C@H](C)O2)[C@H](C)[C@@H](O[C@@H]2O[C@H](C)C[C@H](N(C)C)[C@H]2O)[C@](C)(O)C[C@@H](C)C(=O)[C@H](C)[C@@H](O)[C@]1(C)O [ERYTHROMYCIN]	55 µM (≈ 40.4 µg/mL)	350 µM (≈ 257 µg/mL)	350 µM (≈ 257 µg/mL)	110 µM (≈ 80.7 µg/mL)	
